Laboratory results taken from publication PMC8270334, “Design, Sustainable Synthesis and Biological Evaluation of a Novel Dual α2A/5-HT7 Receptor Antagonist with Antidepressant-Like Properties” (Molecules, 2021).
Like-named read-outs stand apart in the source and are kept apart here.

Key:
human 5-HT7b receptor [1] = target: T1, human 5-HT7b receptor (Homo sapiens, UniProt P34969); assay: radioligand binding, [3H]-5-CT displacement at 5-HT7R in HEK293 cells; settings: read-out: Ki [nM] ± SEM 5-HT7
T1 construct: expressed in transfected cells; host or cells: HEK293
T1 sequence (P34969 1-432): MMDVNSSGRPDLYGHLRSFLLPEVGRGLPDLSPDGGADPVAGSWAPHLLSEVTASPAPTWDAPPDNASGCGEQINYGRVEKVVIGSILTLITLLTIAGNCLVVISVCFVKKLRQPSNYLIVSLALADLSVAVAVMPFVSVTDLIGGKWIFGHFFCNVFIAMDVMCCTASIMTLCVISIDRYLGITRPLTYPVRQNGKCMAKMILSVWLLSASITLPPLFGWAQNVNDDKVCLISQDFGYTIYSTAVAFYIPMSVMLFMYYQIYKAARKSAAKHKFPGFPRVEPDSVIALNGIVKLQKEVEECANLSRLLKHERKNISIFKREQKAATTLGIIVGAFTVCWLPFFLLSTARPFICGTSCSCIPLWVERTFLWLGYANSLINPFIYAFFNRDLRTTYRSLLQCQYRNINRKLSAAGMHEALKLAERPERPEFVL
Experimental: All experiments were performed using HEK293 cells stably expressing human 5-HT1A, 5-HT6, 5-HT7b, and D2L receptors or CHO-K1 cells with a plasmid containing the human 5-HT2A receptor coding sequence (PerkinElmer, Waltham, MA, USA), according to previously reported procedures. Cells were cultured in 150 cm^2 flasks and, after reaching a 90% confluence, were washed with PBS and the centrifugated (200 g) in PBS containing 0.1 mM EDTA and 1 mM dithiothreitol. Cell pellets were subsequently homogenized (in Ultra Turrax tissue homogenizer) and centrifugated twice (35,000× g for 15 min at 4 °C), with 15 min incubation at 37 °C between the centrifugations. All assays were incubated in dedicated buffers and in a total volume of 200 µL in 96-well microtitre plates for 1 h at 37 °C, except for 5-HT1AR and 5-HT2AR that was incubated for 1 h at room temperature. The process of equilibration is terminated by rapid filtration through Unifilter-96 (PerkinElmer) plates with a 96-well cell harvester and radioactivity retained on the filters was quantified on a Microbeta plate reader (PerkinElmer, USA). For displacement studies, the following assay samples containing the proper radioligand were used: 2.5 nM [^3H]-8-OH-DPAT (PerkinElmer, #NET929001MC) for 5-HT1AR; 1 nM [^3H]-ketanserin (PerkinElmer, #NET791250UC) for 5-HT2AR; 2 nM [^3H]-LSD (PerkinElmer, #NET638250UC) for 5-HT6R; and 0.8 nM [^3H]-5-CT (PerkinElmer, #NET1188U100UC) for 5-HT7R or 2.5 nM [^3H]-raclopride (PerkinElmer, #NET975001MC) for D2LR. Non-specific binding was determined using 10 μM 5-HT for 5-HT1AR and 5-HT7R, 20 μM mianserin for 5-HT2AR, 10 μM methiothepine for 5-HT6R, and 10 μM haloperidol for D2LR. […] Results were expressed as means of at least three separate experiments.

human 5-HT7b receptor [2] = target: T1, human 5-HT7b receptor; settings: Figure 1, earlier lead; read-out: Ki (5-HT7R); cited from earlier work
Albino Swiss mice [3] = assay: forced swim test; format: in vivo; settings: ip, 30 min before test
Experimental: Adult male Albino Swiss mice (CD-1, 8 weeks old, 25–30 g: Jagiellonian University Medical College, Krakow, Poland) were used in the study. Animals were housed in groups of 8 in a transparent plastic cage (382 × 220 × 150 mm) at room temperature (22 ± 2 °C), on a 12 h light/dark cycle with ad libitum access to food and water. Mice were handled for one week before starting the experimental procedures. The separate groups of animals were used in the forced swim test and in the locomotor studies. All studies were approved by the Institutional Animal Care and Ethics Committee of the Jagiellonian University (approval no.: 80/2015). […] Tested compounds were dissolved with 1% Tween 80. […] The control animals were given ip injections of the 2% DMSO in 1% Tween 80 (vehicle). The volume of vehicle or drug solutions was 10 mL/kg. The experiment was performed on mice according to the method previously described. Mice were forced to swim individually in the glass cylinders (height 25 cm, diameter 10 cm) filled with water at 24 ± 1 °C to a depth of 10 cm and left there for 6 min. Following a 2 min habituation period, total time spent immobile was recorded over the next 4 min. The animal was regarded as immobile when it remained floating passively in the water, making only small movements to keep its head above the water.

Albino Swiss mice [4] = assay: spontaneous locomotor activity; format: in vivo; settings: ip, doses effective in the FST (6: 4, 8 mg/kg; mirtazapine: 16 mg/kg)
Experimental: Adult male Albino Swiss mice (CD-1, 8 weeks old, 25–30 g: Jagiellonian University Medical College, Krakow, Poland) were used in the study. Animals were housed in groups of 8 in a transparent plastic cage (382 × 220 × 150 mm) at room temperature (22 ± 2 °C), on a 12 h light/dark cycle with ad libitum access to food and water. Mice were handled for one week before starting the experimental procedures. The separate groups of animals were used in the forced swim test and in the locomotor studies. All studies were approved by the Institutional Animal Care and Ethics Committee of the Jagiellonian University (approval no.: 80/2015).
Tested compounds were dissolved with 1% Tween 80. […] The control animals were given ip injections of the 2% DMSO in 1% Tween 80 (vehicle). The volume of vehicle or drug solutions was 10 mL/kg.
Locomotor activity was recorded with an Opto M3 multichannel activity monitor, photoresistor actometers connected to a counter for the recording of light-beam interruptions (MultiDevice Software v1.3, Columbus Instruments, Columbus, OH, USA). The mice, after being placed into the cages individually, had their activity evaluated between the 2nd and the 6th minute. The chosen time period corresponded with the time interval considered in the FST. Spontaneous locomotor activity was evaluated as the distance travelled plus the movements of climbing by animals.

| Structure (SMILES) | Ki (human 5-HT7b receptor [1]) [nM] | also measured |
| --- | --- | --- |
| COc1ccc(OC)c(S(=O)(=O)NC2CCN(CCOc3cccc4c3OC(C)(C)C4)CC2)c1 [Compound 10, 2,5-Dimethoxy-N-{1-[2-(2,2-dimethyl-2,3-dihydrobenzofuran-7-yloxy)ethy]piperidin-4-yl}benzenesulfonamide] | 95 ± 18 | – |
| CC1(C)Cc2cccc(OCCN3CCC(CNS(=O)(=O)c4cc(Cl)ccc4F)CC3)c2O1 [Compound 16] | 316 ± 73 | – |
| CC1(C)Cc2cccc(OCCN3CCC(CNS(=O)(=O)c4ccc(F)cc4)CC3)c2O1 [Compound 14, 4-Fluoro-N-({1-[2-(2,2-dimethyl-2,3-dihydrobenzofuran-7-yloxy)ethyl]piperidin-4-yl}methyl)benzenesulfonamide] | 727 ± 65 | – |
| CC1(C)Cc2cccc(OCCN3CCC(NS(=O)(=O)c4ccc5ccccc5c4)CC3)c2O1 [Compound 12, 2-Naphthalene-N-{1-[2-(2,2-dimethyl-2,3-dihydrobenzofuran-7-yloxy)ethyl]piperidin-4-yl}sulfonamide] | 67 ± 21 | – |
| CC1(C)Cc2cccc(OCCN3CCC(CNS(=O)(=O)c4cccc5ccccc45)CC3)c2O1 [Compound 18, 1-Naphthalene-N-({1-[2-(2,2-dimethyl-2,3-dihydrobenzofuran-7-yloxy)ethyl]piperidin-4-yl}methyl)sulfonamide] | 366 ± 69 | – |
| COc1ccc(Cl)cc1S(=O)(=O)NC1CCN(CCOc2cccc3c2OC(C)(C)C3)CC1 [Compound 9, 5-Chloro-2-methoxy-N-{1-[2-(2,2-dimethyl-2,3-dihydrobenzofuran-7-yloxy)ethyl]piperidin-4-yl}benzenesulfonamide] | 86 ± 26 | – |
| CC(C)Oc1ccccc1OCCN1CCC(NS(=O)(=O)c2ccc(F)cc2)CC1 [PZ-971] | – | Ki (human 5-HT7b receptor [2]): 21 nM |
| CC1(C)Cc2cccc(OCCN3CCC(NS(=O)(=O)c4cccc5ccccc45)CC3)c2O1 [Compound 11, 1-Naphthalene-N-{1-[2-(2,2-dimethyl-2,3-dihydrobenzofuran-7-yloxy)ethyl]piperidin-4-yl}sulfonamide] | 50 ± 16 | – |
| CC1(C)Cc2cccc(OCCN3CCC(CNS(=O)(=O)c4cncc5ccccc45)CC3)c2O1 [Compound 19, 4-Isoquinoline-N-({1-[2-(2,2-dimethyl-2,3-dihydrobenzofuran-7-yloxy)ethyl]piperidin-4-yl}methyl)sulfonamide] | 387 ± 58 | – |
| CC1(C)Cc2cccc(OCCN3CCC(CNS(=O)(=O)c4cccc(Cl)c4)CC3)c2O1 [Compound 15, 3-Chloro-N-({1-[2-(2,2-dimethyl-2,3-dihydrobenzofuran-7-yloxy)ethyl]piperidin-4-yl}methyl)benzenesulfonamide] | 664 ± 82 | – |
| CC1(C)Cc2cccc(OCCN3CCC(NS(=O)(=O)c4cccc(Cl)c4)CC3)c2O1 [Compound 7, 3-Chloro-N-{1-[2-(2,2-dimethyl-2,3-dihydrobenzofuran-7-yloxy)ethyl]piperidin-4-yl}benzenesulfonamide] | 64 ± 15 | – |
| COc1ccc(Cl)cc1S(=O)(=O)NCC1CCN(CCOc2cccc3c2OC(C)(C)C3)CC1 [Compound 17, 5-Chloro-2-methoxy-N-({1-[2-(2,2-dimethyl-2,3-dihydrobenzofuran-7-yloxy)ethyl]piperidin-4-yl}methyl)benzenesulfonamide] | 488 ± 70 | – |
| CN1CCN2c3ncccc3Cc3ccccc3C2C1 (centres unmarked) [Mirtazapine, reference compound] | – | active dose in FST (antidepressant-like effect) (Albino Swiss mice [3]): 16 mg/kg; influence on spontaneous locomotor activity (sedation) (Albino Swiss mice [4]): induced sedation |
